# Laboratory results: patent US9181263B2, “Inhibitors of bruton's tyrosine kinase” (PHARMACYCLICS, INC., priority 2007, dated 2015)
# pIC50: −log10 of the molar value. “Also recorded” adds a separate entry of the source.
# Tests used:
# [1] = Glutathione binding assay; format: physicochemical; settings: 5 mM glutathione, 10 μM inhibitor, potassium phosphate buffer, room temperature, HPLC
# Method: A calculated value (e.g (1/Btk IC50)/Glutathione conjugation rate) as shown in the Table 2) is used to compare compounds for their ratio between potency at inhibiting their target and their non-specific binding to other SH groups, such as those in glutathione. […] Calculated ratios such as these are used to quantitatively compare different compounds and select compounds for further study.
# For the glutathione binding assays, 5 mM glutathione, 10 μM Btk inhibitor in DMSO (10 μL) and 6 equivalents of N′N′ Diisopropyl ethyl amine were combined in 1 mL potassium phosphate buffer. The mixture was incubated for 0, 15, 60 minutes at room temperature and the reaction was stopped with 10 equivalents of formic acid. 50 μL of each reaction mixture was injected on HPLC (Mobil Phase A: 0.2% formic acid in water, Mobile Phase B: 0.2% formic acid in acetonitrile, HPLC Column: Metasil Basic 3μ, 150×4.6 mm, 10% B, Gradient: 10% to 90% B, Detection: UV/Vis […]). Rate of reaction was reported as nmole GSH conjugate conversion per minute from the normalized ratio for area under the curve from HPLC chromatograms for both GSH conjugate and the parent.
# [2] = system: pERK / BCR signal transduction pathway in DOHH2 cells; experiment: BCR pathway phosphorylation (phospho-specific antibodies) in DOHH2; format: cell-based
# Excerpt: (§1) To identify biomarkers that correlate with response to Compound 1, phosphorylation events in the BCR signal transduction pathway were investigated.
# (§2) However, when we examined basal phosphorylation levels, we found higher basal phosphorylation in DOHH2 compared to Ramos, with phospho-ERK in particular indicating higher levels of basal or tonic signaling in DOHH2.
# BTK = BTK (Homo sapiens (Human), UniProt Q06187); experiment: HotSpot kinase assay, BTK; format: biochemical; settings: purified enzyme, 33P-ATP, 1 uM ATP
# Chain of BTK (Q06187 whole entry): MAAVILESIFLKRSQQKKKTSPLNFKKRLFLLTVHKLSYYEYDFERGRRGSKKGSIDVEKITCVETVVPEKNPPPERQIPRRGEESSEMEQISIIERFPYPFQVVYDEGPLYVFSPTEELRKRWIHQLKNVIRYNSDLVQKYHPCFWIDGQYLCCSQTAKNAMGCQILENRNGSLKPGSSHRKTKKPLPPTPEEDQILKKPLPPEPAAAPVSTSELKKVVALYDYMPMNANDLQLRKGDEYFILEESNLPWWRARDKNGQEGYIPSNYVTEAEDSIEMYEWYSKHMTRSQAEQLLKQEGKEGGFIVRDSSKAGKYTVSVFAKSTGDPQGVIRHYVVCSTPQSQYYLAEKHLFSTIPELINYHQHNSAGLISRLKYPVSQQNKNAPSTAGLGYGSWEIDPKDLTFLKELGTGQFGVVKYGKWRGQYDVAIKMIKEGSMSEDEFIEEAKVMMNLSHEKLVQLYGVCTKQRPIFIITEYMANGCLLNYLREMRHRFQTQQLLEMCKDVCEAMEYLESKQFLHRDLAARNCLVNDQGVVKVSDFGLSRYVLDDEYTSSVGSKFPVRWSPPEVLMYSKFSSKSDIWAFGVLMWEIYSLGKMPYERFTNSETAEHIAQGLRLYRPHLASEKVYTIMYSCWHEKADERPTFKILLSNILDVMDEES
# Egr-1 = experiment: Expression of ERK transcriptional target Egr-1; format: cell-based; settings: 1 uM
# [3] = system: pERK / BCR signal transduction pathway in Ramos cells; experiment: BCR pathway phosphorylation (phospho-specific antibodies) in Ramos; format: cell-based
# Excerpt: as §1, §2
# [4] = Plasma concentrations after oral dosing of rats; format: in vivo, male jugular vein cannulated rats; settings: rat plasma, single 8 mg/kg dose by oral gavage, dosed in combination
# Method: Blood samples were collected at 0.0833 (5 minutes), 0.333 (20 minutes), 1, 3, 6, 9, and 24 hours post-dosing from orally dosed rats.
# Male jugular vein cannulated rats were administered a single dose of all test compounds at 8 mg/kg each, in combination by oral gavage. Dose volumes were adjusted based on body weight data collected immediately prior to dosing. Blood samples were collected at 0.0833 (5 minutes), 0.333 (20 minutes), 1, 3, 6, 9, and 24 hours post-dosing from orally dosed rats. The samples were collected into plasma separator Microtainer tubes with anticoagulant (lithium heparin). Plasma samples were prepared by centrifugation (5 min at 5000×g), and at least 100 μL were transferred to storage tubes and stored frozen at −80° C. Plasma samples were thawed and 75 uL aliquots were transferred to centrifuge tubes to which 10 μL aliquots of internal standard solution (1 μg/mL) were added. The samples were not diluted with blank plasma prior to further processing. Soluble proteins were precipitated by the addition of 200 μL of acetonitrile, followed by centrifugation (20 min at 16,000×g). The samples were evaporated to dryness and reconstituted in 200 μL of water containing 0.2% formic acid and 10% methanol. All samples were loaded onto an autosampler maintained at 6° C. and evaluated for concentrations of test compounds using LC-MS/MS.
# [5] = system: collagen-induced arthritis (paw inflammation); experiment: Collagen-induced arthritis in the mouse; format: in vivo, male DBA/1OlaHsd mice
# Method: […]. Compound for vehicle was dosed orally once per day starting at day 1. Dexamethasone was included as a positive control. Paw inflammation was scored from 0-5 and averaged across all paws from all animals for each group in the study.
# . After paw inflammation was established, animals were randomized and Compound for vehicle was dosed orally once per day starting at day 1. Paw inflammation was scored from 0-5 and averaged across all paws from all animals for each group in the study. […] Dexamethasone was included as a positive control.
# [6] = system: Btk expressing B cell lymphoma cell lines; experiment: Panel of nine Btk expressing B cell lymphoma cell lines, sensitivity vs basal pERK; format: cell-based
# Method: (§3) After 72 hours, cell number was measured using Alamar Blue using manufacturer's protocol. A dilution series of untreated cells was run in parallel to verify that the Alamar Blue assay reliably reflected cell number and that growth conditions were not limiting. […] GI50 values were confirmed in two or more separate experiments for each cell line.
# A panel of nine Btk expressing B cell lymphoma cell lines was screened for basal pERK levels.
# lymphoma cell lines = experiment: In vitro cell proliferation, variety of lymphoma cell lines; format: cell-based; settings: 72 hours
# Method: as §3
# [7] = system: MRL/lpr model of lupus (proteinuria); experiment: Mouse MRL/lpr model of lupus; format: in vivo, MRL/lpr mice
# Excerpt: FIG. 3 presents an illustrative line graph showing inhibition of disease progression in a mouse MRL/lpr model of lupus.
# DLCL2 xenograft = experiment: DLCL2 lymphoma xenograft model; format: in vivo; settings: DLCL2 xenograft in SCID mice, dosed orally
# DOHH2 xenograft = experiment: DOHH2 lymphoma xenograft model; format: in vivo; settings: DOHH2 xenograft in SCID mice, dosed orally
# Ramos cells = experiment: Cell proliferation, Ramos cell line; format: cell-based
# Method: as §3, §1
# mast cell degranulation = experiment: Mouse passive cutaneous anaphylaxis model; format: in vivo, mice; settings: single oral dose, increasing doses, 1 hour before DNP-BSA challenge
# Method: FIG. 4 presents an illustrative bar graph showing inhibition of mast cell degranulation in a mouse passive cutaneous anaphylaxis model. […] After one hour, animals were challenged with an intravenous injection of DNP-BSA and Evans Blue dye and the area of extravasation was measured.
# Mice were sensitized with an intradermal injection of monoclonal anti-DNP-IgE in the back. […] After one hour, animals were challenged with an intravenous injection of DNP-BSA and Evans Blue dye. Mast cell degranulation leads to vascular permeability and the distribution of the dye into the skin of the back. The area of extravasation after 1 hour is measured.
# normal human B cells = experiment: B cell activation after brief exposure and washout (CD69); format: cell-based; settings: 1 hour exposure, washed three times, then IgM F(ab')2 stimulation for 18 hours
# Method: (§4) B cells were purified from blood from healthy donors by negative selecting using the RosetteSep Human B cell enrichment cocktail. […] After incubation for 1 hour at 37° C., cells were washed three times using an 8-fold dilution in growth media for each wash. Cells were then stimulated with IgM F(ab′)2 for 18 hours at 37° C., stained with anti-CD69-PE antibody and analyzed by flow cytometry.
# as §4, with “stimulated with 10 ug/ml of IgM F(ab′)2” for “stimulated with IgM F(ab′)2”, “at 37° C. Cells were then stained with” for “at 37° C., stained with”, “by flow cytometry using standard conditions.” for “by flow cytometry.”
# [8] = target: panel of greater than 100 kinases (Tec family kinases including Btk, Src family kinases); experiment: In vitro profiling against a panel of greater than 100 kinases; format: biochemical
# Excerpt: By way of example only and in some embodiments, the observed potency, selectivity, and cell permeability of compounds such as Compound 2 are appropriate to incorporate these molecules into a Kinase-targeted, activity based probe that allows direct visualization of Kinase activity in intact cells. […] Without limiting the scope of the compositions and methods described herein, it is postulated that the structural basis for the selectivity is covalent modification of a non-catalytic cysteine residue (Cys 481 in Btk) that is conserved in the ATP binding pocket of the Tec family and several other kinases.
# EGFR = EGFR (Homo sapiens (Human), UniProt P00533); experiment: HotSpot kinase assay, EGFR; format: biochemical; settings: purified enzyme, 33P-ATP, 1 uM ATP; printed EFGR in Table 1
# Chain of EGFR (P00533 25-1210): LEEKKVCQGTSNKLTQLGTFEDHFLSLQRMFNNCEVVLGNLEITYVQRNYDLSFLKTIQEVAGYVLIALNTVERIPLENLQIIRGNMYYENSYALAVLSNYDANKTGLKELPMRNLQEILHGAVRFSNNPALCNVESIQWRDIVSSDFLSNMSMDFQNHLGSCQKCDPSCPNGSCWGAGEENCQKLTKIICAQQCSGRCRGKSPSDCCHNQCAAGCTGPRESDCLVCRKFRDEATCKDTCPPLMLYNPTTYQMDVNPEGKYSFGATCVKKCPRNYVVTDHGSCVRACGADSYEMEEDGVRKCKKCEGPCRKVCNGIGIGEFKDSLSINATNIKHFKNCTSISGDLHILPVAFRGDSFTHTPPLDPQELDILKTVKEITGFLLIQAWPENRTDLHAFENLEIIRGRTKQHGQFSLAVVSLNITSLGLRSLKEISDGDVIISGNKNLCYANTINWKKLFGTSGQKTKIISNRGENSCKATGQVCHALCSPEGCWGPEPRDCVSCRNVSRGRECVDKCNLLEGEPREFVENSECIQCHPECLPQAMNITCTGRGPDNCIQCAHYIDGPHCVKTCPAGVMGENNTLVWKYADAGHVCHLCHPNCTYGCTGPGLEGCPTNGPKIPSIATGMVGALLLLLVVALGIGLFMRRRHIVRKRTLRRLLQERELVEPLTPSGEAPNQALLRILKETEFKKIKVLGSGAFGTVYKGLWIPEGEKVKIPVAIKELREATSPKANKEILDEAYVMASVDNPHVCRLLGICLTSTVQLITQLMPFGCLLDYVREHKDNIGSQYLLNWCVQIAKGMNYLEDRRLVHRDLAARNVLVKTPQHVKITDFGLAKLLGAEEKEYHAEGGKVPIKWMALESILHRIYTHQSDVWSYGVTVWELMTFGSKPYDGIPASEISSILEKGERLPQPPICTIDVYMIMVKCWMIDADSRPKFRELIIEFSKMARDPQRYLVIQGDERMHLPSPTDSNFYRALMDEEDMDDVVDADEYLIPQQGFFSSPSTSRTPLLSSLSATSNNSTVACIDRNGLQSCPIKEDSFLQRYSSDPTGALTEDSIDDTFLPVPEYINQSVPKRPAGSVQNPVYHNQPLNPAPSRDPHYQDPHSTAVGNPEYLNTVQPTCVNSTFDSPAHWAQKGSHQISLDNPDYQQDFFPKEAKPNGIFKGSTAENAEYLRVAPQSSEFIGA
# [9] = 12.5 mg/kg orally once per day, to day 11
# [10] = 50 mg/kg orally once per day, to day 11
structure (smiles),measurement,setting,value
C=CC(=O)N1CCC(n2nc(-c3ccc(Oc4ccccc4)cc3)c3c(N)ncnc32)CC1 [Compound 6],Glutathione Conj Rate,[1],0.39 nmol/min
Nc1ncnc2c1c(-c1ccc(Oc3ccccc3)cc1)nn2C1CCCN(C(=O)/C=C/c2c[nH]cn2)C1 (centres unmarked) [Compound 4],pIC50,"[2]; unstimulated DOHH2 cells (basal), read-out: pERK levels IC50",> 8.00
same,pIC50,BTK,7.65
same,time to reduced Egr-1 expression,Egr-1,≤ 1 h
same,maximal downregulation of Egr-1 expression,Egr-1; achieved by 4 hr,10 fold
same,decrease of pERK levels,[3]; unstimulated Ramos cells (basal),not
"CN(C)C/C=C/C(=O)N1CCC[C@H]1Cn1nc(-c2ccc(Oc3ccccc3)cc2)c2c(N)ncnc21 [Compound 12, (E)-1-((S)-2-((4-amino-3-(4-phenoxyphenyl)-1H-pyrazolo[3,4-d]pyrimidin-1-yl)methyl)pyrolidin-1-yl)-4-(dimethylamino)but-2-en-1-one]",in vivo half-life,[4],short half-life in vivo
same,Glutathione Conj Rate,[1],0.004361 nmol/min
"CC#CC(=O)N1CCC[C@@H](n2nc(-c3ccc(Oc4ccccc4)cc3)c3c(N)ncnc32)C1 [Compound 17, 1-((R)-3-(4-amino-3-(4-phenoxyphenyl)-1H-pyrazolo[3,4-d]pyrimidin-1-yl)piperidin-1-yl)but-2-yn-1-one]",Glutathione Conj Rate,[1],0.0243 nmol/min
"CN(C)C/C=C/C(=O)N[C@H]1CC[C@@H](n2nc(-c3ccc(Oc4ccccc4)cc3)c3c(N)ncnc32)CC1 [Compound 8, (E)-N-((1s,4s)-4-(4-amino-3-(4-phenoxyphenyl)-1H-pyrazolo[3,4-d]pyrimidin-1-yl)cyclohexyl)-4-(dimethylamino)but-2-enamide]",in vivo half-life,[4],significantly longer in vivo half-life
C=CC(=O)N[C@H]1CC[C@@H](n2nc(-c3ccc(Oc4ccccc4)cc3)c3c(N)ncnc32)CC1 [Compound 9],paw inflammation,[5]; [9],reduced the increase in paw inflammation
same,paw inflammation,[5]; [10],reduced the increase in paw inflammation
C=CC(=O)N1CCC[C@@H](n2nc(-c3ccc(Oc4ccccc4)cc3)c3c(N)ncnc32)C1 [Compound 1],paw inflammation,"[5]; 3.125 mg/kg orally once per day, to day 11",significantly reduced the increase in paw inflammation
same,paw inflammation,"[5]; 12.5 mg/kg intermittent dosing: days 1, 2, 3 or days 9, 10, 11 of an 11-day period",reduced the increase in paw inflammation
same,paw inflammation,[5]; [9],regressed inflammation
same,paw inflammation,[5]; [10],regressed inflammation
same,GI50,[6]; 5 of the seven lines with significantly higher basal pERK,< 1300 nM
same,sensitivity of cell lines to compound,[6]; the two cell lines with low pERK levels,resistant
same,BCR-stimulus induced phosphorylation events,"[2]; DOHH2, anti-IgM or anti-IgG cross-linking",inhibits most BCR-stimulus induced phosphorylation events
same,lymphoma tumor cell growth,lymphoma cell lines,inhibits lymphoma tumor cell growth
same,proteinuria (urine protein levels),[7]; 3.125 mg/kg orally once per day until 20 weeks of age,significantly reduced proteinuria
same,proteinuria (urine protein levels),[7]; 12.5 mg/kg orally once per day until 20 weeks of age,significantly reduced proteinuria
same,proteinuria (urine protein levels),[7]; 50 mg/kg orally once per day until 20 weeks of age,significantly reduced proteinuria
same,tumor growth,DLCL2 xenograft,inhibition of tumor growth; also recorded: inhibits tumor growth
same,tumor growth,DOHH2 xenograft,inhibition of tumor growth; also recorded: inhibits tumor growth
same,in vivo half-life,[4],short half-life in vivo
same,sensitivity of cell line to compound,Ramos cells,resistant
same,BCR-stimulus induced phosphorylation events,"[3]; Ramos, anti-IgM or anti-IgG cross-linking",inhibits most BCR-stimulus induced phosphorylation events
same,amount of Evans Blue release (area of extravasation),mast cell degranulation,significantly decrease the amount of Evans Blue release
same,B cell activation (CD69),normal human B cells,sufficient to inhibit B cell activation
same,Glutathione Conj Rate,[1],0.398 nmol/min
"CN(C)C/C=C/C(=O)N1CCC(n2nc(-c3ccc(Oc4ccccc4)cc3)c3c(N)ncnc32)CC1 [Compound 7, (E)-1-(4-(4-amino-3-(4-phenoxyphenyl)-1H-pyrazolo[3,4-d]pyrimidin-1-yl)piperidin-1-yl)-4-(dimethylamino)but-2-en-1-one]",in vivo half-life,[4],significantly longer in vivo half-life
same,Glutathione Conj Rate,[1],0.01 nmol/min
CN(C)C/C=C/C(=O)N1CCC[C@@H](n2nc(-c3ccc(Oc4ccccc4)cc3)c3c(N)ncnc32)C1 [Compound 2],kinase panel profile,[8],"highly potent and selective inhibitor of Tec family kinases, including, Btk, as well as Src family kinases"
"CC#CC(=O)N[C@H]1CC[C@@H](n2nc(-c3ccc(Oc4ccccc4)cc3)c3c(N)ncnc32)CC1 [Compound 22, N-((1s,4s)-4-(4-amino-3-(4-phenoxyphenyl)-1H-pyrazolo[3,4-d]pyrimidin-1-yl)cyclohexyl)but-2-ynamide]",Glutathione Conj Rate,[1],0.014 nmol/min
CN(C/C=C/C(=O)N1CCCC(n2nc(-c3ccc(Oc4ccccc4)cc3)c3c(N)ncnc32)C1)CCO (centres unmarked) [Compound 3],pIC50,BTK,8.68
same,pIC50,EGFR,7.13
"Nc1ncnc2c1c(-c1ccc(Oc3ccccc3)cc1)nn2C1CCCN(C(=O)/C=C/CN2CCOCC2)C1 (centres unmarked) [Compound 5, (E)-1-(3-(4-amino-3-(4-phenoxyphenyl)-1H-pyrazolo[3,4-d]pyrimidin-1-yl)piperidin-1-yl)-4-morpholinobut-2-en-1-one]",Glutathione Conj Rate,[1],0.004 nmol/min
